Data on twelve compounds can be found in ChEMBL document CHEMBL1130479, “7-O-acylpaclitaxel analogues: potential probes to map the paclitaxel binding site” (1997).

Assay [1] can be described thus: The activity to inhibit microtubule assembly, activity expressed as ED50 of compound/ ED50 of paclitaxel. Format: functional.
Assay [2] relates to B16. In words: The cytotoxic activity was measured against B16 melanoma cells, activity expressed as ED50 of compound/ ED50 of paclitaxel. Format: functional, Mus musculus.

A value given as a limit tells only on which side of the number the result lay.

Take `CC(=O)O[C@H]1C(=O)[C@]2(C)[C@@H](OC(=O)c3cccc(N)c3)C[C@H]3OC[C@@]3(OC(C)=O)[C@H]2[C@H](OC(=O)c2ccccc2)[C@]2(O)C[C@H](OC(=O)[C@H](O)[C@@H](NC(=O)c3ccccc3)c3ccccc3)C(C)=C1C2(C)C`: in assay [1], the Activity stood at 1.5. Further, in assay [2], the Cytotoxicity came to 7.1.

As for `CC(=O)O[C@H]1C(=O)[C@]2(C)[C@@H](OC(=O)c3cc(N)cc([N+](=O)[O-])c3)C[C@H]3OC[C@@]3(OC(C)=O)[C@H]2[C@H](OC(=O)c2ccccc2)[C@]2(O)C[C@H](OC(=O)[C@H](O)[C@@H](NC(=O)c3ccccc3)c3ccccc3)C(C)=C1C2(C)C`, the Activity in assay [1] was 4.4. Moreover, the Cytotoxicity in assay [2] was 16. For `CC(=O)O[C@H]1C(=O)[C@]2(C)[C@@H](OC(=O)CCl)C[C@H]3OC[C@@]3(OC(C)=O)[C@H]2[C@H](OC(=O)c2ccccc2)[C@]2(O)C[C@H](OC(=O)[C@H](O)[C@@H](NC(=O)c3ccccc3)c3ccccc3)C(C)=C1C2(C)C`, in that order: 1.6 and 0.92. With `CC(=O)O[C@H]1C(=O)[C@]2(C)[C@@H](OC(=O)c3cccc(N(C)C)c3)C[C@H]3OC[C@@]3(OC(C)=O)[C@H]2[C@H](OC(=O)c2ccccc2)[C@]2(O)C[C@H](OC(=O)[C@H](O)[C@@H](NC(=O)c3ccccc3)c3ccccc3)C(C)=C1C2(C)C`, in assay [1], the Activity stood at 22. In turn, `CC(=O)O[C@H]1C(=O)[C@]2(C)[C@@H](OC(=O)c3ccccc3)C[C@H]3OC[C@@]3(OC(C)=O)[C@H]2[C@H](OC(=O)c2ccccc2)[C@]2(O)C[C@H](OC(=O)[C@H](O)[C@@H](NC(=O)c3ccccc3)c3ccccc3)C(C)=C1C2(C)C` [PACLITAXEL C7 BENZOIC ACID ESTER] came in with an Activity in assay [1] of 4.1. Besides, the Cytotoxicity in assay [2] was determined as 9.7. `CC(=O)O[C@H]1C(=O)[C@@]2(C)[C@H]([C@H](OC(=O)c3ccccc3)[C@]3(O)C[C@H](OC(=O)[C@H](O)[C@@H](NC(=O)c4ccccc4)c4ccccc4)C(C)=C1C3(C)C)[C@]1(OC(C)=O)CO[C@@H]1C[C@@H]2O` [PACLITAXEL]: the Activity in assay [1] came to 1. This compound also displayed a Cytotoxicity in assay [2] of 1. In turn, `CC(=O)O[C@H]1C(=O)[C@]2(C)[C@@H](OC(=O)c3ccc(N=[N+]=[N-])cc3)C[C@H]3OC[C@@]3(OC(C)=O)[C@H]2[C@H](OC(=O)c2ccccc2)[C@]2(O)C[C@H](OC(=O)[C@H](O)[C@@H](NC(=O)c3ccccc3)c3ccccc3)C(C)=C1C2(C)C` showed an Activity in assay [1] of 21. Also, the Cytotoxicity in assay [2] is given as 30. `CC(=O)O[C@H]1C(=O)[C@@]2(C)C([C@H](OC(=O)c3ccccc3)[C@]3(O)C[C@H](OC(=O)[C@H](O)[C@@H](NC(=O)c4ccccc4)c4ccccc4)C(C)=C1C3(C)C)[C@]1(OC(C)=O)CO[C@@H]1C[C@@H]2OC(=O)c1cccc(C(C)C)c1` (stereo not given in full) had an Activity in assay [1] of more than 32. Take `CC(=O)O[C@H]1C(=O)[C@]2(C)[C@@H](OC(=O)CI)C[C@H]3OC[C@@]3(OC(C)=O)[C@H]2[C@H](OC(=O)c2ccccc2)[C@]2(O)C[C@H](OC(=O)[C@H](O)[C@@H](NC(=O)c3ccccc3)c3ccccc3)C(C)=C1C2(C)C`: the Activity in assay [1] was determined as 3.3. The Cytotoxicity in assay [2] was 3.7. For `CC(=O)O[C@H]1C(=O)[C@]2(C)[C@@H](OC(=O)c3ccc(N)cc3)C[C@H]3OC[C@@]3(OC(C)=O)[C@H]2[C@H](OC(=O)c2ccccc2)[C@]2(O)C[C@H](OC(=O)[C@H](O)[C@@H](NC(=O)c3ccccc3)c3ccccc3)C(C)=C1C2(C)C`, in that order: 1.7 and 17.

As for `CC(=O)O[C@H]1C(=O)[C@]2(C)[C@@H](OC(=O)c3cccc(N=[N+]=[N-])c3)C[C@H]3OC[C@@]3(OC(C)=O)[C@H]2[C@H](OC(=O)c2ccccc2)[C@]2(O)C[C@H](OC(=O)[C@H](O)[C@@H](NC(=O)c3ccccc3)c3ccccc3)C(C)=C1C2(C)C`, the Activity in assay [1] was more than 24.

The compound `CC(=O)O[C@H]1C(=O)[C@]2(C)[C@@H](OC(=O)c3cc(N=[N+]=[N-])cc([N+](=O)[O-])c3)C[C@H]3OC[C@@]3(OC(C)=O)[C@H]2[C@H](OC(=O)c2ccccc2)[C@]2(O)C[C@H](OC(=O)[C@H](O)[C@@H](NC(=O)c3ccccc3)c3ccccc3)C(C)=C1C2(C)C` displayed an Activity in assay [1] of more than 24.
